Measurements from patent US20170051149A1, “AZOARYLS AS REVERSIBLY MODULATABLE TUBULIN INHIBITORS” (ECOLE NORMALE SUPERIEURE DE LYON, priority 2014, published 2017).

Experiments:
MDA-MB-231 cells = assay: cell cycle analysis by PI flow cytometry; type: cell-based
Description: (§1) The effect of compound I.1 on cell cycle progression was assessed by flow cytometry. Briefly, following the application of compound I.1 and exposure to the indicated light regime, cells were harvested on ice and incubated in a hypotonic buffer [0.1% sodium citrate, 0.1% Triton X-100 and 50 μg/mL propidium iodide (PI)] for 30 min at 4° C. Following the PI staining cells were analysed by flow cytometry using FACSCalibur flow cytometer (Becton Dickinson, Heidelberg, Germany) and Cell Quest Pro Software (Becton Dickinson). Subsequently the cell cycle analysis was performed using the FlowJo software (Tree Star Inc., Ashland, Oreg., USA).

HeLa = assay: cell cycle analysis by PI flow cytometry; type: cell-based; settings: 30 h
Description: as §1

HEK-293 = assay: cell cycle analysis by PI flow cytometry; type: cell-based; settings: 30 h
Description: as §1

[1] = fluorescence spectrophotometry (excitation and emission spectra); type: physicochemical
Description: Absorption spectra in cuvette (“UV-Vis”) were acquired on a Varian CaryScan 50 (1 cm, 100 μL or 1 mL volume) with Peltier cell temperature control unit maintained at 37° C., in PBS at pH˜7.4 containing a low percentage of cosolvent if needed (typically 2% MeCN or 5% DMSO). A ThorLabs Polychrome V monochromator with a fibre optic cable output directed into the cuvette was used to perform photoisomerisation studies by UV-Vis spectrophotometry although single LEDs of approximately 10-20 mW output, 15-20° cone angle, and 10-15 nm bandwidth FWHM, obtained commercially from Roithner Lasertechnik GmbH, were equally successful in providing repeatable monochromatic photoisomerisation. Separated spectra of trans and […] forms were acquired from the inline Diode Array Detector on the AGILENT 1260 SL coupled LC-MS system after HPLC separation. Fluorescence spectrophotometry (excitation and emission spectra) were acquired on a Varian CaryEclipse fluorescence spectrophotometer.
Fluorescence imaging is commonly used to sensitively, conveniently and non-invasively determine the local concentration of fluorescent species in biological and medical settings. Considering I.25 as an example of a compound of the invention bearing a fluorescent reporter, it was considered desirable that its rhodamine moiety would allow fluorescence detection of I.25.

[2] = 10 nM, 390 nm (150 ms every 30 s), 48 h
[3] = 20 nM, 390 nm (150 ms every 30 s), 48 h
[4] = 50 nM, 390 nm (150 ms every 30 s), 48 h
[5] = 100 nM, 390 nm (150 ms every 30 s), 48 h
[6] = 400 nM, 390 nm (150 ms every 30 s), 48 h
[7] = 600 nM, 390 nm (150 ms every 30 s), 48 h
[8] = 800 nM, 390 nm (150 ms every 30 s), 48 h
[9] = 1 μM, 390 nm (150 ms every 30 s), 48 h
[10] = 2 μM, 390 nm (150 ms every 30 s), 48 h
[11] = 5 μM, 390 nm (150 ms every 30 s), 48 h
[12] = 200 nM, 390 nm (1 s every 15 min)
[13] = 600 nM, 390 nm (1 s every 15 min)
[14] = 1.5 μM, 390 nm (1 s every 15 min)
[15] = 5 μM, 390 nm (1 s every 15 min)

COc1ccc(N=Nc2cc(OC)c(OC)c(OC)c2)cc1O [I.1, 2-methoxy-5-((3,4,5-trimethoxyphenyl)diazenyl)phenol]
% G1 (MDA-MB-231 cells; [2]): 74.6% | % G2 (MDA-MB-231 cells; [2]): 1.9% | % S (MDA-MB-231 cells; [2]): 17.1% | mean % G2/M phase (MDA-MB-231 cells; [2]): 1.9% | mean % G2/M phase (MDA-MB-231 cells; 10 nM, 390 nm + 515 nm (rescue), 48 h): 0.8% | mean % G2/M phase (MDA-MB-231 cells; 10 nM, 515 nm (500 ms every 30 s), 48 h): 1.1% | % G1 (MDA-MB-231 cells; [3]): 79.5% | % G2 (MDA-MB-231 cells; [3]): 2.5% | % S (MDA-MB-231 cells; [3]): 18.0% | % G1 (MDA-MB-231 cells; [4]): 77.1% | % G2 (MDA-MB-231 cells; [4]): 1.8% | % S (MDA-MB-231 cells; [4]): 18.0% | % G1 (MDA-MB-231 cells; [5]): 76.6% | % G2 (MDA-MB-231 cells; [5]): 2.0% | % S (MDA-MB-231 cells; [5]): 18.5% | mean % G2/M phase (MDA-MB-231 cells; [5]): 2.0% | mean % G2/M phase (MDA-MB-231 cells; 100 nM, 390 nm + 515 nm (rescue), 48 h): 0.9% | mean % G2/M phase (MDA-MB-231 cells; 100 nM, 515 nm (500 ms every 30 s), 48 h): 1.2% | mean % G2/M phase (MDA-MB-231 cells; 200 nM, 390 nm (1 s every 15 min), 30 h): 8.2% | mean % G2/M phase (MDA-MB-231 cells; 200 nM, dark, 30 h): 14.3% | % G1 (MDA-MB-231 cells; [6]): 53.1% | % G2 (MDA-MB-231 cells; [6]): 15.1% | % S (MDA-MB-231 cells; [6]): 27.6% | mean % G2/M phase (MDA-MB-231 cells; [6]): 15.1% | mean % G2/M phase (MDA-MB-231 cells; 400 nM, 390 nm + 515 nm (rescue), 48 h): 6.4% | mean % G2/M phase (MDA-MB-231 cells; 400 nM, 515 nm (500 ms every 30 s), 48 h): 8.2% | mean % G2/M phase (MDA-MB-231 cells; 600 nM, 390 nm (1 s every 15 min), 30 h): 16.3% | % G1 (MDA-MB-231 cells; [7]): 18.0% | % G2 (MDA-MB-231 cells; [7]): 42.6% | % S (MDA-MB-231 cells; [7]): 31.0% | mean % G2/M phase (MDA-MB-231 cells; [7]): 42.6% | mean % G2/M phase (MDA-MB-231 cells; 600 nM, 390 nm + 515 nm (rescue), 48 h): 17.3% | mean % G2/M phase (MDA-MB-231 cells; 600 nM, 515 nm (500 ms every 30 s), 48 h): 21.7% | mean % G2/M phase (MDA-MB-231 cells; 600 nM, dark, 30 h): 12.8% | % G1 (MDA-MB-231 cells; [8]): 9.5% | % G2 (MDA-MB-231 cells; [8]): 54.2% | % S (MDA-MB-231 cells; [8]): 27.5% | mean % G2/M phase (MDA-MB-231 cells; [8]): 54.2% | mean % G2/M phase (MDA-MB-231 cells; 800 nM, 390 nm + 515 nm (rescue), 48 h): 24.7% | mean % G2/M phase (MDA-MB-231 cells; 800 nM, 515 nm (500 ms every 30 s), 48 h): 32.5% | % G1 (MDA-MB-231 cells; [9]): 5.5% | % G2 (MDA-MB-231 cells; [9]): 52.9% | % S (MDA-MB-231 cells; [9]): 27.6% | mean % G2/M phase (MDA-MB-231 cells; [9]): 52.9% | mean % G2/M phase (MDA-MB-231 cells; 1 μM, 390 nm + 515 nm (rescue), 48 h): 22.3% | mean % G2/M phase (MDA-MB-231 cells; 1 μM, 515 nm (500 ms every 30 s), 48 h): 28.4% | mean % G2/M phase (MDA-MB-231 cells; 1.5 μM, 390 nm (1 s every 15 min), 30 h): 40.6% | mean % G2/M phase (MDA-MB-231 cells; 1.5 μM, dark, 30 h): 13.1% | % G1 (MDA-MB-231 cells; [10]): 4.8% | % G2 (MDA-MB-231 cells; [10]): 60.1% | % S (MDA-MB-231 cells; [10]): 26.4% | mean % G2/M phase (MDA-MB-231 cells; 5 μM, 390 nm (1 s every 15 min), 30 h): 49.4% | % G1 (MDA-MB-231 cells; [11]): 5.0% | % G2 (MDA-MB-231 cells; [11]): 70.2% | % S (MDA-MB-231 cells; [11]): 23.9% | mean % G2/M phase (MDA-MB-231 cells; 5 μM, dark, 30 h): 13.8% | mean % G2/M phase (HeLa; [12]): 26.2% | mean % G2/M phase (HeLa; 200 nM, dark): 23.5% | mean % G2/M phase (HeLa; [13]): 33.7% | mean % G2/M phase (HeLa; 600 nM, dark): 24.8% | mean % G2/M phase (HeLa; [14]): 59.9% | mean % G2/M phase (HeLa; 1.5 μM, dark): 27.1% | mean % G2/M phase (HeLa; [15]): 68.7% | mean % G2/M phase (HeLa; 5 μM, dark): 28.4% | mean % G2/M phase (HEK-293; [12]): 19.0% | mean % G2/M phase (HEK-293; 200 nM, dark): 20.2% | mean % G2/M phase (HEK-293; [13]): 19.4% | mean % G2/M phase (HEK-293; 600 nM, dark): 21.2% | mean % G2/M phase (HEK-293; [14]): 65.3% | mean % G2/M phase (HEK-293; 1.5 μM, dark): 21.1% | mean % G2/M phase (HEK-293; [15]): 71.5% | mean % G2/M phase (HEK-293; 5 μM, dark): 24.6%

CCN(CC)c1ccc2c(-c3ccccc3C(=O)N3CCN(CCCOc4c(N=Nc5cc(OC)c(OC)c(OC)c5)ccc(OC)c4C)CC3)c3ccc(=[N+](CC)CC)cc-3oc2c1.CCN(CC)c1ccc2c(-c3ccccc3C(=O)N3CCN(CCCOc4c(N=Nc5cc(OC)c(OC)c(OC)c5)ccc(OC)c4C)CC3)c3ccc(=[N+](CC)CC)cc-3oc2c1.O=C[O-].O=C[O-] [I.25, N-(6-(diethylamino)-9-(2-(4-(3-(3-methoxy-2-methyl-6-((3,4,5-trimethoxyphenyl)diazenyl)phenoxy)propyl)piperazine-1-carbonyl)phenyl)-3H-xanthen-3-ylidene)-N-ethylethanaminium bis(formate) salt]
excitation wavelength giving maximum emission intensity ([1]; emission at 590 nm): 570 nm | fluorescence emission maximum ([1]; excited at 380 nm or 554 nm, 10 μM, 60:32:8 EtOH:PBS:MeCN, 25° C.): 590 nm
